{"source": "patent US7014990B2", "about": "“Machine perfusion solution for organ and biological tissue preservation” (priority 2000, dated 2006)", "assay_type": "physicochemical", "procedure": "A machine perfusion solution of the invention may be prepared by combining the components described above with sterile water, such as distilled and/or deionized water. For example, to prepare the solution, approximately 700–900 mL, or preferably about 800 mL, of sterile water is poured into a one liter beaker at approximately room temperature. Although a one liter beaker is used in this example, any other container of any size may be used to prepare the solution, where the component amounts would be adjusted accordingly. In the most preferred embodiment, the following are added, in any order, to the solution and each is mixed until dissolved in the solution: approximately […] sodium gluconate, approximately […] potassium phosphate, approximately […] adenine, approximately […] of ribose, approximately […] of calcium chloride, and approximately 50 g modified pentastarch. The modified pentastarch is a fractionated colloid mixture of 40–60 kDaltons in diameter and is modified by infusing the pentastarch under 3 atm of pressure through a dialyzing filter with a bore size of about 40–60 kDaltons. About […] magnesium gluconate, approximately […] HEPES, approximately […] glucose, and approximately […] mannitol are also added, in any order, and mixed. Approximately 40 U of insulin is also added. […]", "data": [{"compound": "CCCCC[C@H](O)/C=C/[C@H]1[C@H](O)CC(=O)[C@@H]1CCCCCCC(=O)O", "note": "[modified PGE1, prostaglandin E1]", "values": [{"measurement": "half-life lengthened by a multiple", "value": "about 15"}]}]}
